Data taken from US10201556B2, “Combination for use in treating diseases or conditions associated with melanoma, or treating diseases or conditions associated with activated B-raf pathway” (InteRNA Technologies B.V., priority 2012, dated 2019).

How the values were obtained:
[1] = tested on: mRNA levels in A375 cells; assay: RNA sequencing (transcriptome) of transfected A375 cells; type: cell-based, human; settings: 100 nM mimic
Description: A375 cells were plated in duplo in a 6-well plate at 1.5×10^5 cells/well. The next day, cells were transfected with 100 nM miR-3157 or Negative Control #2 mimics, using 15 μl X-tremeGENE. This procedure (plating and transfection) was repeated three times to generate biological replicates. After 72 hrs, total RNA was isolated using TRI reagent (Sigma-Aldrich) according to the manufacturer's protocol. From 30 μg total RNA, the mRNA was isolated using the MicroPoly(A)Purist kit (Ambion), and the mRNA-ONLY Eukaryotic mRNA Isolation Kit (Epicenter). RNAseq libraries were further prepared using the SOLiD™ Total RNA-Seq Kit (Life Technologies (LT)). Fragmentation of the isolated mRNA was performed by incubation in 20 μl 3 mM MgCl/10 mM Tris pH8, for 15 minutes at 95° C. The fragmented mRNA was incubated with SOLiD™ Adapter mix (LT) in STAR hybridization solution (LT), and incubated for 5 minutes at 65° C. After incubation on ice, adapter ligation was performed according to the STAR protocol (LT). The samples were run on a 10% denaturing polyacrylamide gel, and fragments from 180-300 nucleotides were excised. Reverse transcription and PCR amplification of the libraries was performed according to the STAR protocol, followed by excision of 200 to 300 nucleotide fragments from a 6% native polyacrylamide gel. Sequencing of the fragments was performed on the SOLiD™ System (LT). […]

[2] = tested on: ERK1/MAPK3, RRM2, AURKB, CDK4, BCL2, BIRC5 mRNA; assay: Quantitative real-time PCR of mRNA levels in A375 cells; type: cell-based, human; settings: 10 nM mimic, compared to miRNA control (FIG. 12b)
Description: Total RNA was isolated using TRI Reagent® (Sigma). To detect miR-3157 and U6 (small nuclear RNA RNU6-1) by qPCR, first 100 ng total RNA was mixed with 50 nM of a miR-3157 specific stem-loop (SL) primer or a U6 Reverse Transcriptase (RT) primer (Table 9), 33 μM dNTPs and 50 units M-MLV Reverse Transcriptase (RT) enzyme (Promega) in a 15 μl SL-RT reaction, and incubated for 30 min at 16° C., 30 min at 42° C. and 5 min at 85° C. For cDNA synthesis of total RNA, 1 μg RNA was mixed with 50 units M-MLV RT enzyme, 0.4 μg random hexamers (Qiagen) and 1 mM dNTPs in a 20 μl cDNA synthesis reaction, and incubated 10 min at 25° C., 120 min at 37° C. and 5 min at 85° C. For miR-3157 and U6 quantification, one μl SL-RT product was used for quantification in a single 20 μl qPCR reaction, using iQ™ SYBR® Green (Bio-Rad), and 0.625 μM forward and reverse primer (Table 9). The PCR protocol was 5 min 95° C. (1×), 10 s 95° C./20 s 60° C./10 s 72° C. (×45). For mRNA quantification, 1 μl cDNA was incubated with 1.25 μM gene-specific forward and reverse primers (Table 10) and iQ™ SYBR® Green in a 20 μl qPCR reaction for 5 min at 95° C. (1×), 15 s 95° C./30 s 60° C./30 s 72° C. (×45). PCR amplification was performed on a CFX96 Touch™ Real-Time PCR Detection System (Bio-Rad).

hsa-miR-3157-5p: mature miRNA mimic, SEQ ID NO 6 UUCAGCCAGGCUAGUGCAGUCU (listed as RNA, chemistry not given here)
decrease of mRNA levels of CDK4, BCL2 and BIRC5 in the RNAseq analysis ([1]; 72 hrs): 60% | predicted targets with reduced mRNA levels ([1]; change at least 60%, p<10^-5, in silico target prediction): 145 genes | mRNA levels of ERK1, RRM2, AURKB, CDK4, BCL2, BIRC5 by qPCR [2]: reduced mRNA levels
